Patent US20250228865A1, “COMPOUNDS FOR ENHANCING READ THROUGH OF GENES CONTAINING PREMATURE TERMINATION CODONS AND METHODS FOR MAKING AND USING THE SAME” (Sanofi US Services Inc., priority 2022, published 2025)

What was measured:
[1] = test system: recombinant human CFTR carrying the premature stop codon (PTC) mutation G542X; assay: CFTR-PTC mutant translation readthrough, Nanoluc tagged CFTR luminescence (G542X cell line); type: cell-based; settings: in combination with G418, G542X cell line; for CFTR G542X ACTIVITY Fold 10 μM G-418: fold over 10 μM G-418; for EC50: 16HBE cells
Outline: (§1)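 16HBE cells stably expressing Nanoluc-tagged human CFTR with G542X or R1162X, in medium with 3 μM VX-809, treated 48 h at 37 °C with compound (10-point, 2-fold, top 50 μM final) alone or with 10 μM G418. Live-cell Nanoluc luminescence normalised to a maximally effective G418 (125-250 μM).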

[2] = test system: recombinant human CFTR carrying the premature stop codon (PTC) mutation R1162X; assay: CFTR-PTC mutant translation readthrough, Nanoluc tagged CFTR luminescence (R1162X cell line); type: cell-based; settings: for CFTR R1162X ACTIVITY Fold 10 μM G-418: fold over 10 μM G-418, in combination with G418; for EC50: in combination with G418, 16HBE cells, read-out: CFTR R1162X ACTIVITY EC50
Outline: as §1

Row | EC50 [1] | EC50 [2] | SMILES | CFTR G542X ACTIVITY Fold 10 μM G-418 [1] | CFTR R1162X ACTIVITY Fold 10 μM G-418 [2]
1 | 1 to 10 µM | < 1 µM | O=C(O)C1CN(c2ncc(OCc3c(Cl)cccc3C(F)(F)F)cn2)CCO1 (stereo not shown) [4-[5-[[2-chloro-6-(trifluoromethyl)phenyl]methoxy]pyrimidin-] | C′ (C′ = <5X) | –
2 | < 1 µM | < 1 µM | Cc1cccc(C(F)(F)F)c1COc1cnc(N2CCNC(=O)C2)nc1 [4-[5-[[2-methyl-6-(trifluoromethyl)phenyl]methoxy]pyrimidin-2-yl]piperazin-2-one] | A′ (A′ = ≥10X) | A′ (A′ = ≥10X)
3 | < 1 µM | < 1 µM | CN(CCCCO)c1ncc(OCc2c(Cl)cccc2Cl)cn1 [4-[[5-[(2,6-dichlorophenyl)methoxy]pyrimidin-2-yl]-methyl-amino]butan-1-ol] | A′ (A′ = ≥10X) | A′ (A′ = ≥10X)
4 | 1 to 10 µM | > 10 µM | NCC1CN(c2ccc(OCc3c(Cl)cccc3Cl)cc2)C(=O)O1 (stereo not shown) [5-(aminomethyl)-3-[4-[(2,6-dichlorophenyl)methoxy]phenyl]oxazolidin-2-one] | B′ (B′ = ≥5X to <10X) | A′ (A′ = ≥10X)
5 | 1 to 10 µM | 1 to 10 µM | Cn1cc(-c2ccc(OCc3c(Cl)cccc3Cl)cn2)nn1 [5-[(2,6-dichlorophenyl)methoxy]-2-(1-methyltriazol-4-yl)pyridine] | A′ (A′ = ≥10X) | A′ (A′ = ≥10X)
6 | > 10 µM | > 10 µM | Clc1cccc(Cl)c1COc1cnc(-c2nnn[nH]2)nc1 [5-[(2,6-dichlorophenyl)methoxy]-2-(1H-tetrazol-5-yl)pyrimidine] | – | –
7 | 1 to 10 µM | 1 to 10 µM | COC1CCN(c2ncc(OCc3c(Cl)cccc3Cl)cn2)C1 (stereo not shown) [5-[(2,6-dichlorophenyl)methoxy]-2-(3-methoxypyrrolidin-1-yl)pyrimidine] | A′ (A′ = ≥10X) | B′ (B′ = ≥5X to <10X)
8 | < 1 µM | < 1 µM | Clc1cccc(Cl)c1COc1cnc(-n2cc(-c3ccccn3)nn2)nc1 [5-[(2,6-dichlorophenyl)methoxy]-2-[4-(2-pyridyl)triazol-1-yl]pyrimidine] | A′ (A′ = ≥10X) | A′ (A′ = ≥10X)
9 | 1 to 10 µM | 1 to 10 µM | Clc1cccc(Cl)c1COc1cnc(-n2ncc(-c3ccccn3)n2)nc1 [5-[(2,6-dichlorophenyl)methoxy]-2-[4-(2-pyridyl)triazol-2-yl]pyrimidine] | A′ (A′ = ≥10X) | A′ (A′ = ≥10X)
10 | 1 to 10 µM | 1 to 10 µM | NC(=O)c1ccc(OCc2c(Cl)cccc2Cl)cn1 [5-[(2,6-dichlorophenyl)methoxy]pyridine-2-carboxamide] | A′ (A′ = ≥10X) | B′ (B′ = ≥5X to <10X)
11 | < 1 µM | 1 to 10 µM | FC(F)(F)c1cccc(Cl)c1COc1cnc(-n2cncn2)nc1 [5-[[2-chloro-6-(trifluoromethyl)phenyl]methoxy]-2-(1,2,4-triazol-1-yl)pyrimidine] | A′ (A′ = ≥10X) | A′ (A′ = ≥10X)
12 | 1 to 10 µM | 1 to 10 µM | Cc1cccc(C(F)(F)F)c1COc1cnc(-n2cnnc2)nc1 [5-[[2-methyl-6-(trifluoromethyl)phenyl]methoxy]-2-(1,2,4-triazol-4-yl)pyrimidine] | A′ (A′ = ≥10X) | A′ (A′ = ≥10X)
13 | > 10 µM | 1 to 10 µM | O=c1[nH]ncc2cc(OCc3c(Cl)cccc3Cl)ccc12 [6-[(2,6-dichlorophenyl)methoxy]-2H-phthalazin-1-one] | B′ (B′ = ≥5X to <10X) | A′ (A′ = ≥10X)
14 | < 1 µM | 1 to 10 µM | Clc1cccc(Cl)c1COc1cnc(N2CCC3(CCO3)C2)nc1 (stereo not shown) [7-[5-[(2,6-dichlorophenyl)methoxy]pyrimidin-2-yl]-1-oxa-7-azaspiro[3.4]octane] | A′ (A′ = ≥10X) | A′ (A′ = ≥10X)
15 | 1 to 10 µM | > 10 µM | O[C@@H]1CN(c2ncc(OCc3c(Cl)cccc3Cl)cn2)C[C@@H]1O [(3R,4S)-1-[5-[(2,6-dichlorophenyl)methoxy]pyrimidin-2-yl]pyrrolidine-3,4-diol] | A′ (A′ = ≥10X) | A′ (A′ = ≥10X)

The remaining lines, values behind:

Row | SMILES | EC50 [1] | EC50 [2] | CFTR G542X ACTIVITY Fold 10 μM G-418 [1] | CFTR R1162X ACTIVITY Fold 10 μM G-418 [2]
16 | O=C1COC(=O)N1c1ccc(OCc2c(Cl)cccc2Cl)cc1 [3-[4-[(2,6-dichlorophenyl)methoxy]phenyl]oxazolidine-2,4-dione] | 1 to 10 µM | 1 to 10 µM | B′ (B′ = ≥5X to <10X) | C′ (C′ = <5X)
17 | Cc1cccc(C)c1COc1ccc(N2CC(CO)OC2=O)c2ccccc12 (stereo not shown) [3-[4-[(2,6-dimethylphenyl)methoxy]-1-naphthyl]-5-(hydroxymethyl)oxazolidin-2-one] | > 10 µM | > 10 µM | – | C′ (C′ = <5X)
18 | Cc1cccc(C)c1COc1ccc(N2CC(CO)OC2=O)cc1 (stereo not shown) [3-[4-[(2,6-dimethylphenyl)methoxy]phenyl]-5-(hydroxymethyl)oxazolidin-2-one] | 1 to 10 µM | > 10 µM | B′ (B′ = ≥5X to <10X) | A′ (A′ = ≥10X)
19 | O=C1OC(CO)CN1c1ccc(OCc2cc(Cl)cc(Cl)c2)cc1 (stereo not shown) [3-[4-[(3,5-dichlorophenyl)methoxy]phenyl]-5-(hydroxymethyl)oxazolidin-2-one] | 1 to 10 µM | > 10 µM | B′ (B′ = ≥5X to <10X) | B′ (B′ = ≥5X to <10X)
20 | O=C1OC(CO)CN1c1ccc(CCc2c(Cl)cccc2Cl)cn1 (stereo not shown) [3-[5-[2-(2,6-dichlorophenyl)ethyl]-2-pyridyl]-5-(hydroxymethyl)oxazolidin-2-one] | 1 to 10 µM | > 10 µM | B′ (B′ = ≥5X to <10X) | A′ (A′ = ≥10X)
21 | O=C1OC(CO)CN1c1ccc(OCc2c(Cl)cccc2Cl)cn1 (stereo not shown) [3-[5-[(2,6-dichlorophenyl)methoxy]-2-pyridyl]-5-(hydroxymethyl)oxazolidin-2-one] | 1 to 10 µM | 1 to 10 µM | A′ (A′ = ≥10X) | A′ (A′ = ≥10X)
22 | O=C1OC(CO)CN1c1ccc(OCc2cc(Cl)cc(Cl)c2)cn1 (stereo not shown) [3-[5-[(3,5-dichlorophenyl)methoxy]-2-pyridyl]-5-(hydroxymethyl)oxazolidin-2-one] | 1 to 10 µM | 1 to 10 µM | A′ (A′ = ≥10X) | A′ (A′ = ≥10X)
23 | CN(CCCO)c1ncc(OCc2c(Cl)cccc2Cl)cn1 [3-[[5-[(2,6-dichlorophenyl)methoxy]pyrimidin-2-yl]-methyl-amino]propan-1-ol] | 1 to 10 µM | > 10 µM | B′ (B′ = ≥5X to <10X) | B′ (B′ = ≥5X to <10X)
24 | O=C(O)C1CN(c2ncc(OCc3c(Cl)cccc3C(F)(F)F)cn2)CCO1 (stereo not shown) [4-(5-{[2-chloro-6-(trifluoromethyl)phenyl]methoxy}pyrimidin-] | 1 to 10 µM | > 10 µM | – | –
25 | Cn1cnc(-c2ccc(OCc3c(Cl)cccc3Cl)cc2)c1 [4-[4-[(2,6-dichlorophenyl)methoxy]phenyl]-1-methyl-imidazole] | 1 to 10 µM | 1 to 10 µM | A′ (A′ = ≥10X) | A′ (A′ = ≥10X)
26 | O=C1OCC(CO)=C1c1ccc(OCc2c(Cl)cccc2Cl)cc1 [4-[4-[(2,6-dichlorophenyl)methoxy]phenyl]-3-(hydroxymethyl)-2H-furan-5-one] | 1 to 10 µM | 1 to 10 µM | B′ (B′ = ≥5X to <10X) | B′ (B′ = ≥5X to <10X)
27 | NC(=O)N1CCCN(c2ncc(OCc3c(Cl)cccc3Cl)cn2)CC1 [4-[5-[(2,6-dichlorophenyl)methoxy]pyrimidin-2-yl]-1,4-diazepane-1-carboxamide] | 1 to 10 µM | 1 to 10 µM | A′ (A′ = ≥10X) | A′ (A′ = ≥10X)
28 | CN1CCN(c2ncc(OCc3c(Cl)cccc3Cl)cn2)CC1=O [4-[5-[(2,6-dichlorophenyl)methoxy]pyrimidin-2-yl]-1-methyl-piperazin-2-one] | 1 to 10 µM | 1 to 10 µM | A′ (A′ = ≥10X) | A′ (A′ = ≥10X)
29 | Clc1cccc(Cl)c1COc1cnc(N2CCOCC2)nc1 [4-[5-[(2,6-dichlorophenyl)methoxy]pyrimidin-2-yl]morpholine] | 1 to 10 µM | 1 to 10 µM | A′ (A′ = ≥10X) | A′ (A′ = ≥10X)
30 | NS(=O)(=O)N1CCN(c2ncc(OCc3c(Cl)cccc3Cl)cn2)CC1 [4-[5-[(2,6-dichlorophenyl)methoxy]pyrimidin-2-yl]piperazine-1-sulfonamide] | 1 to 10 µM | > 10 µM | A′ (A′ = ≥10X) | A′ (A′ = ≥10X)
31 | Cc1cccc(C(F)(F)F)c1COc1cnc(N2CCNCC2)nc1 [5-{[2-methyl-6-(trifluoromethyl)phenyl]methoxy}-2-(piperazin-1-yl)pyrimidine] | 1 to 10 µM | 1 to 10 µM | A′ (A′ = ≥10X) | A′ (A′ = ≥10X)
